One series has as its system primary rat hepatocytes. Nature of the series: Inhibition of lipid synthesis ([1-14C]-acetate incorporation) in primary cultures of rat hepatocytes. The following applies: Hepatocyte, 4 h incubation with [1-14C]-acetate, Table 7, ranges: confidence of estimate insufficient to assign a value. The series is classed as cell-based. An outline of the steps:
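Monolayer primary hepatocytes from male Sprague-Dawley rats, serum-free overnight, were incubated 4 h with 0, 1, 3, 10, 30, 100 or 300 μM compound and 0.25 μCi [1-14C]-acetate per well. Total lipid synthesis was read as radioactivity in the lipid phase extracted into scintillant.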

SMILES strings stand for the structures.

One may read the IC50 as the concentration that gives 50% inhibition. One may read the melting point as the temperature, or range, at which the solid turns liquid.

On to `CC(C)(CO)CCCCC(=O)CCCCC(C)(C)CO` [Compound 214c, 1,13-Dihydroxy-2,2,12,12-tetramethyltridecan-7-one], for which the half-inhibitory concentration (IC50) in the series on primary rat hepatocytes was 4000 nM.
Still for that read-out and setting: in the case of `CC(C)(CCCCCC(=O)CCCCCC(C)(C)C(=O)O)C(=O)O` [Compound 210g, 2,2,14,14-Tetramethyl-8-oxopentadecanedioic acid] it was 3000 nM.
As to `CC(C)(CCCCC(=O)CCCCC(C)(C)C(=O)O)C(=O)O` [Compound 210c, 7-Oxo-2,2,12,12-tetramethyltridecanedioic acid], the melting point lay within 60 to 61.5 °C. In the series with primary rat hepatocytes, the IC50 is 3000 nM.

Source of the values: patent US7304093B2, “Ketone compounds and compositions for cholesterol management and related uses” (Esperion Therapeutics, Inc., priority 2000, dated 2007).
